Results published in patent publication US20160038439A1, “Use of 7-a-[9-(4,4,5,5,5-pentafluoropentylsulfinyl)nonyl]-estra-1,3,5(10)- triene-3,17B-diol and derivatives thereof” (XI'ANLIBANG PHARMACEUTICAL TECHNOLOGY CO., LTD., priority 2013, published 2016).
Marks after values point to notes of the source that are not given here.

Columns and labels:
[1] = system: chicken type II collagen-induced arthritis model in SD rats; experiment: Hindfoot joint score in chicken type II collagen-induced arthritis model in SD rats; format: in vivo; set-up: scale not given here; conditions: tail vein, every other day
Method: (§1) After inflamed model was successfully established in SD rats, the SD rats were randomly divided into model control group (12 rats), low, medium dose group (8 rats for each), and high dose group (12 rats) of test drug depending on body weight. Rats in the model control group were administered a blank fat emulsion injection (0.5 mL) by tail vein injection every other day for 7 days; rats in the low and medium dose group of test drug were administered a fat emulsion injection of a compound of Formula A (specifically including Compounds I-VI described hereafter) by tail vein injection every other day for 7 days; rats in the high dose group of test drug were administered a fat emulsion injection of a compound of Formula A by tail vein injection every other day for 14 days. 12 same models in the normal control group were also administered a blank fat emulsion injection. Indexes such as hindfoot joint score, hindfoot joint thickness measurement, TNF-α level in serum and hindfoot joint tissues, hindfoot joint pathological section and the like were used to evaluate efficacy of the drug.
(§2) Chicken type II collagen was dissolved in 0.1 mol/L acetic acid at 4° C. while stirring so as to be thoroughly dissolved at a concentration of 2 mg/mL The resulting solution was put into a refrigerator at 4° C. overnight. Liquid paraffin and lanolin were mixed at a ratio of 2:1 (volume ratio), and the mixture was autoclaved to prepare an incomplete Freund's adjuvant (IFA). Bacillus Calmette Guerin (BCG) vaccine (60 mg) was inactivated at 80° C. for 1 hour and transferred to a mortar, into which was dropwise added IFA. After being uniformly grinded, the resulting mixture was pushed and sucked repeatedly by double-syringe to prepare a complete Freund's adjuvant (CFA), with the final concentration of BCG vaccine being 2 mg/mL. An equal amount of chicken type II collagen acid solution was mixed with CFA into a stable emulsion (containing 1 mg chicken type II collagen per milliliter).
(§3) 12 female SD rats were randomly selected from 192 female SD rats as normal control group. The remaining 180 rats was disinfected with iodine tincture. After being deiodinated with 75% ethanol, each of the rat was administered 150 μL collagen emulsion by intradermal injection at the base of the tail, and was administered 100 μL collagen emulsion by intradermal injection at the vola pedis of right hindfoot. Thus, totally 250 μL for each rat was administered. 7 days later, an equal amount of collagen emulsion was intraperitoneal injected as a secondary immune.
(§4) Animal grouping and administration: inflamed rats were divided into model control group, low, medium and high dose groups of test drug based on body weight.
(§5) Rats in each group were scored for the hindfoot joint and measured for the thickness of ankle joint before being inflamed. Normal rats were taken blood from orbital venous plexus. The serum of the blood was separated out and cryopreserved at −20° C. to detect cytokines. Rats were scored for joint after being inflamed for 3 days, and were measured for the thickness of ankle joint before administration (on the 19th day since being inflamed), on the 3rd day and 8th day after administration (on the […] since being inflamed). Rats in each group were taken blood from orbital venous plexus when inflammation was severe (on the 23rd day after being inflamed). The serum of the blood was separated out and cryopreserved at −20° C. 8 rats for each group were sacrificed on the 28th day after being inflamed and were taken blood from intraperitoneal vein. The serum of the blood was separated out and was subjected to serological detection (TNF-α). The rest of rats were sacrificed on the 35th day after being inflamed, and histology index detection was carried out

[2] = system: chicken type II collagen-induced arthritis model in SD rats; experiment: Thickness of right hindfoot ankle joint by microcalliper, collagen-induced arthritis rats; format: in vivo
Method: as §1, §2, §3, §4, §5

TNF-α [3] = experiment: TNF-α level in serum of rats with arthritis (ELISA); format: in vivo, SD rats
Method: as §1
(§6) Compound I used in the present invention was purchased from Xi′ an Libang Pharmaceutical Co., Ltd.; Compounds II-IV were synthesized by the following method. SD rats used in the present invention were purchased from Super-B&K Laboratory Animal Corp. Ltd.; chicken type II collagen was purchased from Sigma, Lot No. 87H5227; rat tumor necrosis factor-α [TNF-α] enzyme-linked immunoassay kit (ELISA) was purchased from Shanghai Biovol Biotech Co., Ltd., Lot No. BV-E12102201.
as §2, §3, §4
as §5, with “8 rats for each group were sacrificed on the 28th day after being inflamed and were taken blood from intraperitoneal vein. The serum of the blood was separated out and was subjected to serological detection (TNF-α). The rest of rats were sacrificed on the 35th day after being inflamed, and histology index detection was carried out” left out

TNF-α [4] = experiment: TNF-α level in hindfoot ankle joint tissue of rats with arthritis; format: in vivo, SD rats
Method: as §1, §6, §2, §3, §4
as §5, with “8 rats for each group were sacrificed on the 28th day after being inflamed and were taken blood from intraperitoneal vein. The serum of the blood was separated out and was subjected to serological detection (TNF-α). The rest of rats were sacrificed on the 35th day after being inflamed, and histology index detection was carried out” left out

[5] = system: chicken type II collagen-induced arthritis model in SD rats; experiment: Pathological examination score of hindfoot ankle joint of rats with arthritis; format: in vivo; conditions: high dose group (1.40-2.16 mg/kg per compound), every other day for 14 days, n=4
Method: as §1, §2
12 female SD rats were randomly selected from 192 female SD rats as normal control group. The remaining 180 rats was disinfected with iodine tincture. After being deiodinated with 75% ethanol, each of the rat was administered 150 μL collagen emulsion by intradermal injection at the base of the tail, and was administered 100 μL collagen emulsion by intradermal injection at the vola pedis of right hindfoot. […]
Rats in each group were scored for the hindfoot joint and measured for the thickness of ankle joint before being inflamed. […] Rats were scored for joint after being inflamed for 3 days, and were measured for the thickness of ankle joint before administration (on the 19th day since being inflamed), on the 3rd day and 8th day after administration (on the 20th day since being inflamed). […]

[6] = high dose group, before administration (baseline)
[7] = high dose group, the 3rd day after administration
[8] = high dose group, the 8th day after administration
[9] = low dose group, before administration (baseline)
[10] = low dose group, the 3rd day after administration
[11] = low dose group, the 8th day after administration
[12] = medium dose group, before administration (baseline)
[13] = medium dose group, the 3rd day after administration
[14] = medium dose group, the 8th day after administration
[15] = left ankle joint, high dose group
[16] = left ankle joint, low dose group
[17] = left ankle joint, medium dose group
[18] = right ankle joint, high dose group
[19] = right ankle joint, low dose group
[20] = right ankle joint, medium dose group

Row | Substance | Mean value of hindfoot joint score [1, 6] | Mean value of hindfoot joint score [1, 7] | Mean value of hindfoot joint score [1, 8] | Mean value of hindfoot joint score [1, 9] | Mean value of hindfoot joint score [1, 10] | Mean value of hindfoot joint score [1, 11] | Mean value of hindfoot joint score [1, 12] | Mean value of hindfoot joint score [1, 13] | Mean value of hindfoot joint score [1, 14] | Thickness of ankle joint (mean ± SD) [2, 6] | Thickness of ankle joint (mean ± SD) [2, 7] | Thickness of ankle joint (mean ± SD) [2, 8] | Thickness of ankle joint (mean ± SD) [2, 9] | Thickness of ankle joint (mean ± SD) [2, 10] | Thickness of ankle joint (mean ± SD) [2, 11] | Thickness of ankle joint (mean ± SD) [2, 12] | Thickness of ankle joint (mean ± SD) [2, 13] | Thickness of ankle joint (mean ± SD) [2, 14] | TNF-α level in serum (mean ± SD) (TNF-α [3]; [7]) | TNF-α level in serum (mean ± SD) (TNF-α [3]; [8]) | further results
1 | 7-α-[9-(4,4,5,5,5-pentafluoropentylsulfinyl)nonyl]-estra-1,3,5(10)-triene-3-hydroxyl-17-docosanoyl [Compound III] | 5.4 | 4.8**^# | 5.6 | 4.5 | 5.3**^## | 5 | 5 | 4.8** | 5.4 | 6.59 ± 0.44 mm | 6.55 ± 0.56 mm | 6.31 ± 0.69 mm | 5.94 ± 0.52 mm | 6.22 ± 0.38 mm | 6.06 ± 0.29 mm | 6.33 ± 0.52 mm | 6.45 ± 0.53 mm | 6.36 ± 0.46 mm | 16.53 ± 15.71 pg/mL | 10.36 ± 7.08 pg/mL | TNF-α level in serum (mean ± SD) (TNF-α [3]; [10]): 81.94 ± 141.25 pg/mL; TNF-α level in serum (mean ± SD) (TNF-α [3]; [11]): 157.89 ± 248.01 pg/mL; TNF-α level in serum (mean ± SD) (TNF-α [3]; [13]): 12.31 ± 17.56 pg/mL; TNF-α level in serum (mean ± SD) (TNF-α [3]; [14]): 39.56 ± 29.29 pg/mL; TNF-α level in ankle (mean ± SD) (TNF-α [4]; [15]): 11.05 ± 3.96 pg/mL; TNF-α level in ankle (mean ± SD) (TNF-α [4]; [16]): 12.93 ± 4.15 pg/mL; TNF-α level in ankle (mean ± SD) (TNF-α [4]; [17]): 13.62 ± 3.42 pg/mL; TNF-α level in ankle (mean ± SD) (TNF-α [4]; [18]): 13.85 ± 3.38 pg/mL; TNF-α level in ankle (mean ± SD) (TNF-α [4]; [19]): 14.13 ± 4.20 pg/mL; TNF-α level in ankle (mean ± SD) (TNF-α [4]; [20]): 12.02 ± 5.91 pg/mL; Joint lesion score (mean ± SD) [5]: 1.50 ± 1.91
2 | 7-α-[9-(4,4,5,5,5-pentafluoropentylsulfinyl)nonyl]-estra-1,3,5(10)-triene-3-hydroxyl-17-undecanoyl [Compound II] | 4.7 | 5.3**^# | 4.9 | 4.9 | 4.8** | 5.6^# | 4.9 | 4.9** | 4.9 | 6.31 ± 0.52 mm | 6.29 ± 0.69 mm | 5.83 ± 0.61 mm | 6.39 ± 0.68 mm | 6.05 ± 0.55 mm | 5.98 ± 0.19 mm | 5.99 ± 0.57 mm | 6.31 ± 0.54 mm | 6.31 ± 0.51 mm | 26.72 ± 35.26 pg/mL | 25.65 ± 20.66 pg/mL | TNF-α level in serum (mean ± SD) (TNF-α [3]; [10]): 48.28 ± 94.84 pg/mL; TNF-α level in serum (mean ± SD) (TNF-α [3]; [11]): 201.35 ± 250.23 pg/mL; TNF-α level in serum (mean ± SD) (TNF-α [3]; [13]): 11.00 ± 9.39 pg/mL; TNF-α level in serum (mean ± SD) (TNF-α [3]; [14]): 75.12 ± 93.40 pg/mL; TNF-α level in ankle (mean ± SD) (TNF-α [4]; [15]): 14.08 ± 4.09 pg/mL; TNF-α level in ankle (mean ± SD) (TNF-α [4]; [16]): 13.79 ± 4.68 pg/mL; TNF-α level in ankle (mean ± SD) (TNF-α [4]; [17]): 15.91 ± 5.84 pg/mL; TNF-α level in ankle (mean ± SD) (TNF-α [4]; [18]): 15.11 ± 4.32 pg/mL; TNF-α level in ankle (mean ± SD) (TNF-α [4]; [19]): 13.79 ± 3.26 pg/mL; TNF-α level in ankle (mean ± SD) (TNF-α [4]; [20]): 12.13 ± 3.35 pg/mL; Joint lesion score (mean ± SD) [5]: 2.50 ± 2.65
